Data reported in ChEMBL document CHEMBL5303761, “Data for DCP probe BI-3231” (2023).

Legend:
[1] = target: 17-beta-hydroxysteroid dehydrogenase 13 (Mus musculus, UniProt Q8VCR2); assay: Enzymatic assay (mHSD17B13); type: functional
[2] = target: Estradiol 17-beta-dehydrogenase 11 (Homo sapiens, UniProt Q8NBQ5); assay: Enzymatic assay (hHSD17B11); type: functional
[3] = target: GABA-A receptor; anion channel (Rattus norvegicus) (UniProt O09028+P15431+P18506+P18508+P19969+P20236+P23574+P23576+P28471+P28473+P30191+P62813+P63079+P63138+Q91ZM7+Q9ES14); assay: BZD/CENTR/R Eurofins SafetyScreen44 (BI); type: protein-complex assay; conditions: Compound concentration 10.0 uM
[4] = target: L-type Ca2+ channel (dihydropyridine site), Cav1.2 alpha-1C (Rattus norvegicus, UniProt P22002); assay: CA+/DHPSI/R Eurofins SafetyScreen44 (BI); conditions: rat brain, probe [3H](+)PN200-110, compound concentration 10 uM, read-out: % Ctrl
[5] = target: Histamine H1 receptor (Homo sapiens) (UniProt P35367); assay: H1/PYRIL/HS Eurofins SafetyScreen44 (BI); conditions: Compound concentration 10.0 uM
[6] = target: hERG (KCNH2) (Homo sapiens, UniProt Q12809); assay: HERG_DOFETILIDE Eurofins SafetyScreen44 (BI); conditions: probe [3H]dofetilide, compound concentration 10 uM, read-out: % Ctrl
[7] = target: MAO-A (Rattus norvegicus, UniProt P21396); assay: MAO-A_ANTAG Eurofins SafetyScreen44 (BI); set-up: scale not given: the % may be the effect or the level left; conditions: compound concentration 10 uM, read-out: % Ctrl
[8] = target: Kappa-type opioid receptor (Homo sapiens) (UniProt P41145); conditions: Compound concentration 10.0 uM
[9] = target: Histamine H4 receptor (Homo sapiens) (UniProt Q9H3N8); conditions: Compound concentration 10.0 uM
[10] = target: Beta-1 adrenergic receptor (Homo sapiens) (UniProt P08588); conditions: Compound concentration 10.0 uM
[11] = target: Beta-2 adrenergic receptor (Homo sapiens) (UniProt P07550); conditions: Compound concentration 10.0 uM
[12] = target: Sigma intracellular receptor 2 (Homo sapiens) (UniProt Q5BJF2); conditions: Compound concentration 10.0 uM
[13] = target: T1, 5-hydroxytryptamine receptor 1A (Homo sapiens) (UniProt P08908); conditions: Compound concentration 10.0 uM
T1 sequence (whole entry): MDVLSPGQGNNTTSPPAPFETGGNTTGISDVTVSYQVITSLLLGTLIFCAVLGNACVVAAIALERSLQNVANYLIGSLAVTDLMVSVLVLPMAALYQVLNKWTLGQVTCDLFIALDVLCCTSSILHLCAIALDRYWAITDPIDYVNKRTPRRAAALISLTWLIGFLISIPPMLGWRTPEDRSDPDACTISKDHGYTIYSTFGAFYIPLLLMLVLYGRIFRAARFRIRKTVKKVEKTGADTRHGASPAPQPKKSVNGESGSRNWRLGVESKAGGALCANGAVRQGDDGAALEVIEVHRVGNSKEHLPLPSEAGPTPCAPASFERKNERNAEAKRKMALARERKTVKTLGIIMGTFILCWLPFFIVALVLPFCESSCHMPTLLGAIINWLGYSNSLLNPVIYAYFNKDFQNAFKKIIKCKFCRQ

[14] = target: 5-hydroxytryptamine receptor 2C (Homo sapiens) (UniProt P28335); conditions: Compound concentration 10.0 uM
[15] = target: 5-hydroxytryptamine receptor 6 (Homo sapiens) (UniProt P50406); conditions: Compound concentration 10.0 uM
[16] = target: D(1A) dopamine receptor (Homo sapiens) (UniProt P21728); conditions: Compound concentration 10.0 uM
[17] = target: D(2) dopamine receptor (Homo sapiens) (UniProt P14416); conditions: Compound concentration 10.0 uM
[18] = target: T2, Muscarinic acetylcholine receptor M1 (Homo sapiens) (UniProt P11229); conditions: Compound concentration 10.0 uM
T2 sequence (whole entry): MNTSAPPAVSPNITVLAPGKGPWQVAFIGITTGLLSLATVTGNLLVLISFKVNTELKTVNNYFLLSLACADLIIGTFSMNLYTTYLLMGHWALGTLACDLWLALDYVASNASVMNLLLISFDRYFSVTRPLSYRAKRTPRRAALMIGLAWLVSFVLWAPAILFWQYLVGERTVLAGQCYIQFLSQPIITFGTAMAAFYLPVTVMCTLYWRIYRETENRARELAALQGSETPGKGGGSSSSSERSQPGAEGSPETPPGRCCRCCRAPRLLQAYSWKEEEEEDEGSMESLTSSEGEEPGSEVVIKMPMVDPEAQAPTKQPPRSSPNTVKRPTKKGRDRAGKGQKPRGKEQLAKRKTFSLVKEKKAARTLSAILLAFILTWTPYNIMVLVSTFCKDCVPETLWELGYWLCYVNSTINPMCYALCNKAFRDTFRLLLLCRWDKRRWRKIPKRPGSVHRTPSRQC

Beta-2 adrenergic receptor (Homo sapiens), sequence (P07550 whole entry, looked up): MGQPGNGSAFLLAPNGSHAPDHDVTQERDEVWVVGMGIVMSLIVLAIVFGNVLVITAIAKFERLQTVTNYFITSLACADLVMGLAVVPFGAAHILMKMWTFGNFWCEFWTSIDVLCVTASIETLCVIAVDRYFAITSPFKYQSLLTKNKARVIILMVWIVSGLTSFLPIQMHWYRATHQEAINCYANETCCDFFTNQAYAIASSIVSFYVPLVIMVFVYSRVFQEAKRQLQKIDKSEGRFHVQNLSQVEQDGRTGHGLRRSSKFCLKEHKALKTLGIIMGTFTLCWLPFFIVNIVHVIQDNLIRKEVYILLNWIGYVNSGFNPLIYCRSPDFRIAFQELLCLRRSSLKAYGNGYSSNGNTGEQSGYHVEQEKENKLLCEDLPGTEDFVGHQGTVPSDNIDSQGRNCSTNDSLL
Beta-1 adrenergic receptor (Homo sapiens), sequence (P08588 whole entry, looked up): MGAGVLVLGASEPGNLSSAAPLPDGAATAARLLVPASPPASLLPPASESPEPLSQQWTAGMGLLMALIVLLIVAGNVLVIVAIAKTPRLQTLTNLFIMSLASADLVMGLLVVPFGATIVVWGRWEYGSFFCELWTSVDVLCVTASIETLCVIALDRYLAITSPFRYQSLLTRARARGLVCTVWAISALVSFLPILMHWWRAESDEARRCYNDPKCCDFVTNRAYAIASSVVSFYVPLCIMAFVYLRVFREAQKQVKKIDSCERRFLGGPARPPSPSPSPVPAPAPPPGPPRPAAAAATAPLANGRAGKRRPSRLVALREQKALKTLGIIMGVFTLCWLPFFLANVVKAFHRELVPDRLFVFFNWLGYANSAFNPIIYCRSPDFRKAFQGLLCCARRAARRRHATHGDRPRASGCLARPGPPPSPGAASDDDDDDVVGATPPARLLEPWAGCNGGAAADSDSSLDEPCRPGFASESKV
Sigma intracellular receptor 2 (Homo sapiens), sequence (Q5BJF2 whole entry): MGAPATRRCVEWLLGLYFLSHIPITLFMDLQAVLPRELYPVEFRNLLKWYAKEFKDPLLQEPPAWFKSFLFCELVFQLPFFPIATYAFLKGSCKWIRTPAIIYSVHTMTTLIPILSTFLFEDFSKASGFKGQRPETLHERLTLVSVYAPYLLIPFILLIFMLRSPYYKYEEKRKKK
L-type Ca2+ channel (dihydropyridine site), Cav1.2 alpha-1C, sequence (P22002 whole entry): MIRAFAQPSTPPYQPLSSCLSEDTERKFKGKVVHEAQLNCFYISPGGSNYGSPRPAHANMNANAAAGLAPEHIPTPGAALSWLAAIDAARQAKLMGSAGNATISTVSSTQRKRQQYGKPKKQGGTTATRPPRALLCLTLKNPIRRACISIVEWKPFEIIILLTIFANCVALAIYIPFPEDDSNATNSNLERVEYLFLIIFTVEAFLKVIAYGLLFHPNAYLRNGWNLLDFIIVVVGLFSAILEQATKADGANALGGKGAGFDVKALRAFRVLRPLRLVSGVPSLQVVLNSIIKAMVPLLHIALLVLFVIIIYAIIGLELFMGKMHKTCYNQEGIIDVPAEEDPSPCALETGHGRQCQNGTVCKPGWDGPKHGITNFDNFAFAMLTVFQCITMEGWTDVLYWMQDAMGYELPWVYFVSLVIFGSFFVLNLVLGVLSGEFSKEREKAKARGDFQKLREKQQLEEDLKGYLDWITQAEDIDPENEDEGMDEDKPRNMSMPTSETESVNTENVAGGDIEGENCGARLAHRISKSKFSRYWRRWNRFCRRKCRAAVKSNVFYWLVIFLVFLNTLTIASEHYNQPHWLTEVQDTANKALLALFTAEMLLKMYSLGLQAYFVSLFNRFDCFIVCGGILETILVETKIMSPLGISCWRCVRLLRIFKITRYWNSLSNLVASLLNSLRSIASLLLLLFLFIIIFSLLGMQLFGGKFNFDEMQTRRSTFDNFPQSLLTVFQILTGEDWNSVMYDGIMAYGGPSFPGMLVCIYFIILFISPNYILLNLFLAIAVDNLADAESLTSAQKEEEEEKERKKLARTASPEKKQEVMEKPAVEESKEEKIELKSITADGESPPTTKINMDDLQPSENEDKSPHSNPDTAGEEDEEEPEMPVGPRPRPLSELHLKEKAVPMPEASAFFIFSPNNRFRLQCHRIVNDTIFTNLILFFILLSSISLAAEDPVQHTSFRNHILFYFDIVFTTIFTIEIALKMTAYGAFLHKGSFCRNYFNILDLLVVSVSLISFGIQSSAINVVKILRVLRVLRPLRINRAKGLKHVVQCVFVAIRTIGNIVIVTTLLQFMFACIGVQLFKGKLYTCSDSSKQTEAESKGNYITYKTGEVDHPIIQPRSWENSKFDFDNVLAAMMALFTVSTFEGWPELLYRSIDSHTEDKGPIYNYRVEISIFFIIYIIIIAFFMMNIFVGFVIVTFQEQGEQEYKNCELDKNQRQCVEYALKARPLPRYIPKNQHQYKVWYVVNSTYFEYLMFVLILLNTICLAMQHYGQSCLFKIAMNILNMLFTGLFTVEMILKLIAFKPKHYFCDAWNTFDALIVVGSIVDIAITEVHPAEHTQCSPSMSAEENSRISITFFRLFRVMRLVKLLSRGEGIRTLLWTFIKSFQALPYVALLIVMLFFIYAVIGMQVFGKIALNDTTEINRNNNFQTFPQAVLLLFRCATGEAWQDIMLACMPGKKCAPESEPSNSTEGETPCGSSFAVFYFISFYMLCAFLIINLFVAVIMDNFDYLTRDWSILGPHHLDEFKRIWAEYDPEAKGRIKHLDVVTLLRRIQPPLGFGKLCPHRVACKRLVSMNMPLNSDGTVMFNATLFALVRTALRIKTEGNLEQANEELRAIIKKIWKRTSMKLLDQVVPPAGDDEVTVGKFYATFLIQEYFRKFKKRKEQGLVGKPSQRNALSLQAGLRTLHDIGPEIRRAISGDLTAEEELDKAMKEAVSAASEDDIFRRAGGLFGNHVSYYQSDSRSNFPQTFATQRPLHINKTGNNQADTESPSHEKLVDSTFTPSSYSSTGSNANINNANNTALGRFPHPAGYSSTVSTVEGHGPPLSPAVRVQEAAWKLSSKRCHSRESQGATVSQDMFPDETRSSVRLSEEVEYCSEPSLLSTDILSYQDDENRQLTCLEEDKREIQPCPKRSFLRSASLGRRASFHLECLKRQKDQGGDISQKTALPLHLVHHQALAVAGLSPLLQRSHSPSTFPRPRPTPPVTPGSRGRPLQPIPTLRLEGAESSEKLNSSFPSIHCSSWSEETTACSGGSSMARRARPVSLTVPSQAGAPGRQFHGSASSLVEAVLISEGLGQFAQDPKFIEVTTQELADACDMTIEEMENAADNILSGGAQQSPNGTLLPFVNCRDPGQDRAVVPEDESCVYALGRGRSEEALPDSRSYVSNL
5-hydroxytryptamine receptor 6 (Homo sapiens), sequence (P50406 whole entry): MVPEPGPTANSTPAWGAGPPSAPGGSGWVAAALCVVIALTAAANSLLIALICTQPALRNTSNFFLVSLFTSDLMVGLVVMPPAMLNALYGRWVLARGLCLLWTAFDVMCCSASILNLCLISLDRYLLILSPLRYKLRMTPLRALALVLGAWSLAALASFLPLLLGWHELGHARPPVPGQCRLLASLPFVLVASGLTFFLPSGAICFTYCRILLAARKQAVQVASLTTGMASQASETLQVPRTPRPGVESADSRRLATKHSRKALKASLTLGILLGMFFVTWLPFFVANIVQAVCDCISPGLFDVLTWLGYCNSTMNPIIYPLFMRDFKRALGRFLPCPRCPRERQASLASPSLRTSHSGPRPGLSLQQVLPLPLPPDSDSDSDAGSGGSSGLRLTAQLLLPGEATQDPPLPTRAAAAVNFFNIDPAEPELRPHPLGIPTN
Kappa-type opioid receptor (Homo sapiens), sequence (P41145 whole entry): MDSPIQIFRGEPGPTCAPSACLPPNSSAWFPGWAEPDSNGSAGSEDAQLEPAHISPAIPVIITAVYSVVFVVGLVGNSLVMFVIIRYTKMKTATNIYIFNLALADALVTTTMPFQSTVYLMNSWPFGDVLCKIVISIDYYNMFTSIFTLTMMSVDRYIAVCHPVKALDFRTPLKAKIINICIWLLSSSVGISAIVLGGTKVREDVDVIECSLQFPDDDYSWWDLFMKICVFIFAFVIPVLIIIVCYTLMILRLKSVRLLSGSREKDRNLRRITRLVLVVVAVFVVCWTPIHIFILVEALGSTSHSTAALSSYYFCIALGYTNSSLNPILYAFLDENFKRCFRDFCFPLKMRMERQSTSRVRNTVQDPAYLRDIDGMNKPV
5-hydroxytryptamine receptor 2C (Homo sapiens), sequence (P28335 whole entry): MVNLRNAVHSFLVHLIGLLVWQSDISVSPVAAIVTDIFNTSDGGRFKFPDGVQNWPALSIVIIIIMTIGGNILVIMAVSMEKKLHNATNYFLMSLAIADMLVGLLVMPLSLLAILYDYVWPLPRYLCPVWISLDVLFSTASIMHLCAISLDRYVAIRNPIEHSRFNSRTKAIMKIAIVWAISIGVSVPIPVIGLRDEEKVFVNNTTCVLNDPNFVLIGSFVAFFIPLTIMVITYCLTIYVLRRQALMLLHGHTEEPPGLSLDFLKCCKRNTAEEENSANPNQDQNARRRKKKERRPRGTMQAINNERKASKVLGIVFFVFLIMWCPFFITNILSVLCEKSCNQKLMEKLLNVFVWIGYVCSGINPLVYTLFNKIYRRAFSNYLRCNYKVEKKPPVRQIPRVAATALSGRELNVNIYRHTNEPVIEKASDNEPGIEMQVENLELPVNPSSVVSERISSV
D(2) dopamine receptor (Homo sapiens), sequence (P14416 whole entry): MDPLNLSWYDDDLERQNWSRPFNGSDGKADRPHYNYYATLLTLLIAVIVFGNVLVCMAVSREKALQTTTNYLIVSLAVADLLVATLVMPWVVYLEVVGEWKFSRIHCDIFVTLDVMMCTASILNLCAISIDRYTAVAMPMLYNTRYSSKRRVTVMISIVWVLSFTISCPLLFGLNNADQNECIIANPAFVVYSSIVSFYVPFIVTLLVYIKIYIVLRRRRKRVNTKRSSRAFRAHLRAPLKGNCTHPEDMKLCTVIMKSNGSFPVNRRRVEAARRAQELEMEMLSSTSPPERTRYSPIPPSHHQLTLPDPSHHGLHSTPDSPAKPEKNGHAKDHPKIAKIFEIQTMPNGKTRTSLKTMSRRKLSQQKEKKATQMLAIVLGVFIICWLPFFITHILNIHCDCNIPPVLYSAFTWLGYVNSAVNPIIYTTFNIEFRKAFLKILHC

| Ki [1] | IC50 [2] | inhibition [8] | inhibition [9] | inhibition [10] | inhibition [11] | inhibition [12] | inhibition [13] | inhibition [14] | inhibition [15] | inhibition [16] | inhibition [17] | inhibition [18] | Structure (SMILES) | residual activity [3] | activity at 10 µM [4] | residual activity [5] | activity at 10 µM [6] | activity at 10 µM [7] |
| --- | --- | --- | --- | --- | --- | --- | --- | --- | --- | --- | --- | --- | --- | --- | --- | --- | --- | --- |
| > 10 µM (not active) | > 10 µM (not active) | 11.7% | -9.96% | -1.07% | 6.43% | -5.43% | – | – | – | – | – | – | CCn1c(=O)c(C)cn(Cc2nnc(-c3ccc(F)c(OC)c3F)s2)c1=O | 94% | 93% (not active) | 100% | 100% (not active) | 88% (not active) |
| – | – | – | 3.99% | – | – | – | 29.3% | -2.92% | 0.69% | -6.39% | -2.66% | 5.93% | CCn1c(=O)c(C)cn(Cc2nnc(-c3ccc(F)c(O)c3F)s2)c1=O | 115% | 84% (not active) | 84% | – | – |
